Molecular target: HIV-1 reverse transcriptase (RT35A, wild type) (Human immunodeficiency virus type 1 group M subtype B, UniProt P03366)
Assay: JDAM dual activity monitor RT activity assay
Assay type: biochemical
Details: for ligand efficiency: LE = -RTln(IC50)/NHA

Row | Compound | ligand efficiency | inhibition (in words) (at 1 mM, JDAM assay)
1 | CCOC(=O)c1cnn2ccccc12 [compound 1, ethyl pyrazolo[1,5-a]pyridine-3-carboxylate] | 0.34 kcal/mol●NHA | –
2 | NCc1ccc(OC(F)(F)F)cc1 [compound 2, 4-(trifluoromethoxy)benzylamine] | – | no detectable inhibition
3 | Oc1ccc(OC(F)(F)F)cc1 [compound 3, 4-(trifluoromethoxy)phenol] | 0.37 kcal/mol●NHA | –
4 | CN(CC(=O)N1CCCc2ccccc21)Cc1nc(=O)c2ccccc2[nH]1 [compound 8, 2-(((2-(3,4-dihydroquinolin-1(2H)-yl)-2-oxoethyl)(methyl)amino)methyl)quinazolin-4(1H)-one] | 0.19 kcal/mol●NHA | –
